Source: patent publication US9932637B2, “Genetic polymorphisms associated with cardiovascular disorders and drug response, methods of detection and uses thereof” (CELERA CORPORATION, priority 2003, dated 2018)

System: patients with prior myocardial infarction (CARE study)
Test: CARE: association of SNPs with pravastatin treatment in cardiovascular events prevention (logistic regression, odds ratio pravastatin vs placebo by genotype; Table 8)
Assay type: in vivo, human
Details: for Fatal/Non-fatal Atherosclerotic CV Disease, n/total (%) / Hosp. for Cardiovascular Disease, n/total (%) / Total Cardiovascular Disease Events, n/total (%) / Prava vs. Placebo Odds Ratio, 0 Rare Alleles / Prava vs. Placebo Odds Ratio, 1 Rare Alleles / Prava vs. Placebo Odds Ratio, 2 Rare Alleles / Fatal CHD/Definite Non-fatal MI, n/total (%) / Total Coronary Heart Disease Events, n/total (%): All Patients; for Fatal/Non-fatal Atherosclerotic CV Disease, n/total (%) / Hosp. for Cardiovascular Disease, n/total (%) / Total Cardiovascular Disease Events, n/total (%) / Fatal CHD/Definite Non-fatal MI, n/total (%) / Total Coronary Heart Disease Events, n/total (%): Prava; for Stroke, n/total (%): PECAM1 hCV16170911, All Patients, Prava arm
Source text: In order to identify genetic markers associated with acute coronary events (e.g. MI, stroke, unstable angina, congestive heart failure, etc.) or response to statin treatment for the prevention of coronary events, samples from the Cholesterol and Recurrent Events (CARE) study (a randomized multicentral double-blinded trial on secondary prevention of acute coronary events with pravastatin) (Sacks et al., 1991, Am. J. Cardiol. 68: 1436-1446) were genotyped. A well-documented myocardial infarction (MI) was one of the enrollment criteria for entry into the CARE study. Patients were enrolled in the CARE trial from 80 participating study centers. […] Patients were randomized to receive either 40 mg of pravastatin once daily or a matching placebo. The primary endpoint of the trial was death from coronary heart disease and the median duration of follow-up was 5.0 years (range, 4.0 to 6.2 years). […] Secondary endpoints of other related cardiovascular or metabolic disease events, and changes in clinical variables were also recorded in pravastatin-treated and placebo groups. All individuals included in the study had signed a written informed consent form and the study protocol was approved by the respective Institutional Review Boards (IRBs).
For genotyping SNPs in CARE patient samples, DNA was extracted from blood samples using conventional DNA extraction methods such as the QIA-amp kit from Qiagen. Genotypes were obtained on an ABI PRISM® 7900HT Sequence Detection PCR system (Applied Biosystems, Foster City, Calif.) by kinetic allele-specific PCR, similar to the method described by Germer et al. (Germer S., Holland M. J., Higuchi R. 2000, Genome Res. 10: 258-266).
Statistical analysis for association of SNPs with pravastatin treatment in cardiovascular events prevention (Table 8) was carried out using an overall logistic regression model that included an intercept, a parameter for the effect of a genotype containing two rare alleles versus a genotype containing no rare alleles, a parameter for the effect of a genotype containing one rare allele versus a genotype containing no rare alleles, a parameter for the effect of use of pravastatin versus the use of placebo, and parameters for the interaction effects between SNP genotypes and pravastatin use. The test of the overall model is a chi-square test with two degrees of freedom for analyses containing all three genotypes, and one degree of freedom for analyses containing two genotypes.
Effect sizes were estimated through odds ratios (pravastatin group versus placebo) for carriers of each genotype (groups of 0, 1, and 2 minor allele carriers). The effect was considered to be significant if p-value for testing whether any of the interactions between SNP genotypes and pravastatin use were <0.05. […] Odds ratios less than one indicate that the specific SNP allele has a protective effect and odds ratios greater than one indicate that the specific SNP allele has an adverse effect.

[1] = NPC1 hCV7490135, Cardiovascular Mortality
[2] = NPC1 hCV7490135, Fatal Atherosclerotic Cardiovascular Disease
[3] = NPC1 hCV7490135, Fatal/Non-fatal Atherosclerotic CV Disease
[4] = NPC1 hCV7490135, Hosp. for Cardiovascular Disease
[5] = NPC1 hCV7490135, Total Cardiovascular Disease Events
[6] = NPC1 hCV7490135, Total Coronary Heart Disease Events
[7] = NPC1 hCV25472673, Fatal CHD/Definite Non-fatal MI
[8] = NPC1 hCV25472673, Fatal/Non-fatal Atherosclerotic CV Disease
[9] = NPC1 hCV25472673, Hosp. for Cardiovascular Disease
[10] = NPC1 hCV25472673, Total Cardiovascular Disease Events
[11] = NPC1 hCV25472673, Total Coronary Heart Disease Events
[12] = PEMT hCV7443062, Fatal CHD/Definite Non-fatal MI

SMILES: CC[C@H](C)C(=O)O[C@H]1C[C@H](O)C=C2C=C[C@H](C)[C@H](CC[C@@H](O)C[C@@H](O)CC(=O)O)[C@H]21 [pravastatin]
- Fatal/Non-fatal Atherosclerotic CV Disease, n/total (%) (NPC1 hCV7490135, 2 Rare Alleles, n/total 93/324): (28.7%)
- Hosp. for Cardiovascular Disease, n/total (%) (NPC1 hCV7490135, 2 Rare Alleles, n/total 117/324): (36.1%)
- Total Cardiovascular Disease Events, n/total (%) (NPC1 hCV7490135, 2 Rare Alleles, n/total 119/324): (36.7%)
- Prava vs. Placebo Odds Ratio, 0 Rare Alleles [1]: 1.30
- Prava vs. Placebo Odds Ratio, 1 Rare Alleles [1]: 0.83
- Prava vs. Placebo Odds Ratio, 2 Rare Alleles [1]: 0.20
- Prava vs. Placebo Odds Ratio, 0 Rare Alleles [2]: 1.25
- Prava vs. Placebo Odds Ratio, 1 Rare Alleles [2]: 0.83
- Prava vs. Placebo Odds Ratio, 2 Rare Alleles [2]: 0.20
- Prava vs. Placebo Odds Ratio, 0 Rare Alleles [3]: 1.07
- Prava vs. Placebo Odds Ratio, 1 Rare Alleles [3]: 0.73
- Prava vs. Placebo Odds Ratio, 2 Rare Alleles [3]: 0.56
- Prava vs. Placebo Odds Ratio, 0 Rare Alleles [4]: 1.01
- Prava vs. Placebo Odds Ratio, 1 Rare Alleles [4]: 0.76
- Prava vs. Placebo Odds Ratio, 2 Rare Alleles [4]: 0.52
- Prava vs. Placebo Odds Ratio, 0 Rare Alleles [5]: 1.02
- Prava vs. Placebo Odds Ratio, 1 Rare Alleles [5]: 0.75
- Prava vs. Placebo Odds Ratio, 2 Rare Alleles [5]: 0.52
- Prava vs. Placebo Odds Ratio, 0 Rare Alleles [6]: 1.07
- Prava vs. Placebo Odds Ratio, 1 Rare Alleles [6]: 0.72
- Prava vs. Placebo Odds Ratio, 2 Rare Alleles [6]: 0.58
- Fatal CHD/Definite Non-fatal MI, n/total (%) (NPC1 hCV25472673, 0 Rare Alleles, n/total 65/596): (10.9%)
- Total Coronary Heart Disease Events, n/total (%) (NPC1 hCV25472673, 0 Rare Alleles, n/total 193/596): (32.4%)
- Fatal/Non-fatal Atherosclerotic CV Disease, n/total (%) (NPC1 hCV25472673, 0 Rare Alleles, n/total 221/596): (37.1%)
- Hosp. for Cardiovascular Disease, n/total (%) (NPC1 hCV25472673, 0 Rare Alleles, n/total 262/596): (44.0%)
- Total Cardiovascular Disease Events, n/total (%) (NPC1 hCV25472673, 0 Rare Alleles, n/total 274/596): (46.0%)
- Fatal CHD/Definite Non-fatal MI, n/total (%) (NPC1 hCV25472673, 1 Rare Allele, n/total 56/664): (8.4%)
- Total Coronary Heart Disease Events, n/total (%) (NPC1 hCV25472673, 1 Rare Allele, n/total 186/664): (28.0%)
- Fatal/Non-fatal Atherosclerotic CV Disease, n/total (%) (NPC1 hCV25472673, 1 Rare Allele, n/total 213/664): (32.1%)
- Hosp. for Cardiovascular Disease, n/total (%) (NPC1 hCV25472673, 1 Rare Allele, n/total 255/664): (38.4%)
- Total Cardiovascular Disease Events, n/total (%) (NPC1 hCV25472673, 1 Rare Allele, n/total 259/664): (39.0%)
- Fatal CHD/Definite Non-fatal MI, n/total (%) (NPC1 hCV25472673, 2 Rare Alleles, n/total 19/242): (7.9%)
- Total Coronary Heart Disease Events, n/total (%) (NPC1 hCV25472673, 2 Rare Alleles, n/total 59/242): (24.4%)
- Fatal/Non-fatal Atherosclerotic CV Disease, n/total (%) (NPC1 hCV25472673, 2 Rare Alleles, n/total 68/242): (28.1%)
- Hosp. for Cardiovascular Disease, n/total (%) (NPC1 hCV25472673, 2 Rare Alleles, n/total 88/242): (36.4%)
- Total Cardiovascular Disease Events, n/total (%) (NPC1 hCV25472673, 2 Rare Alleles, n/total 90/242): (37.2%)
- Prava vs. Placebo Odds Ratio, 0 Rare Alleles [7]: 1.00
- Prava vs. Placebo Odds Ratio, 1 Rare Alleles [7]: 0.65
- Prava vs. Placebo Odds Ratio, 2 Rare Alleles [7]: 0.41
- Prava vs. Placebo Odds Ratio, 0 Rare Alleles [8]: 1.03
- Prava vs. Placebo Odds Ratio, 1 Rare Alleles [8]: 0.73
- Prava vs. Placebo Odds Ratio, 2 Rare Alleles [8]: 0.41
- Prava vs. Placebo Odds Ratio, 0 Rare Alleles [9]: 1.02
- Prava vs. Placebo Odds Ratio, 1 Rare Alleles [9]: 0.72
- Prava vs. Placebo Odds Ratio, 2 Rare Alleles [9]: 0.40
- Prava vs. Placebo Odds Ratio, 0 Rare Alleles [10]: 1.03
- Prava vs. Placebo Odds Ratio, 1 Rare Alleles [10]: 0.71
- Prava vs. Placebo Odds Ratio, 2 Rare Alleles [10]: 0.39
- Prava vs. Placebo Odds Ratio, 0 Rare Alleles [11]: 1.01
- Prava vs. Placebo Odds Ratio, 1 Rare Alleles [11]: 0.73
- Prava vs. Placebo Odds Ratio, 2 Rare Alleles [11]: 0.44
- Stroke, n/total (%) (0 Rare Alleles): (1.5%)
- Stroke, n/total (%) (1 Rare Allele): (3.1%)
- Stroke, n/total (%) (2 Rare Alleles): (0.9%)
- Fatal CHD/Definite Non-fatal MI, n/total (%) (PEMT hCV7443062, 0 Rare Alleles, n/total 34/478): (7.1%)
- Fatal CHD/Definite Non-fatal MI, n/total (%) (PEMT hCV7443062, 1 Rare Allele, n/total 72/735): (9.8%)
- Fatal CHD/Definite Non-fatal MI, n/total (%) (PEMT hCV7443062, 2 Rare Alleles, n/total 34/305): (11.1%)
- Prava vs. Placebo Odds Ratio, 0 Rare Alleles [12]: 0.42
- Prava vs. Placebo Odds Ratio, 1 Rare Alleles [12]: 0.87
